From US20110160223A1, “NMDA Receptor Antagonists for the Treatment of Neuropsychiatric Disorders” (priority 2008, published 2011)
Like-named read-outs stand apart in the source and are kept apart here.

Tests used:
[1] = biological target: rat alpha-1 adrenergic receptor in rat brain membranes; experiment: alpha-1 adrenergic receptor binding by displacement of 3[H]-prazosin; settings: 3[H]-prazosin displacement, read-out: α1 IC50
Experimental: Binding to the rat alpha-1 adrenergic receptor in rat brain membranes was determined by displacement of ^3[H]-prazosin (P. Greengrass and R. Bremner; Binding characteristics of 3H-prazosin to rat brain a-adrenergic receptors. Eur. J. Pharmacol. 1979, 55: 323-326). Compounds were incubated at 0.3 or 3 μM final concentration, in duplicate, and the amount of displaced ^3[H]-prazosin determined by liquid scintillation spectroscopy.
(§1) Binding IC50 values were determined from displacement curves (four-six concentrations, each concentration in duplicate) fit by a non-linear, least squares, regression analysis using MathIQ (ID Business Solutions Ltd., UK). The binding Ki's were determined from the IC50 according to the method of Cheng and Prusoff (Y. Cheng and W. H. Prusoff; Relationship between the inhibition constant (K1) and the concentration of inhibitor which causes 50 percent inhibition (IC50) of an enzymatic reaction. Biochem. Pharmacol. 1973, 22: 3099-3108).

[2] = biological target: NMDA receptor (NR1 + NR2 subunits) (Rattus norvegicus, UniProt P35439+Q00960); experiment: Two electrode voltage clamp recording from Xenopus laevis oocytes (pH dependence of NMDA antagonism); assay type: cell-based; settings: Table 22
Experimental: cRNA was synthesized from linearized template cDNA for rat glutamate receptor subunits according to manufacturer specifications (Ambion). Quality of synthesized cRNA was assessed by gel electrophoresis, and quantity was estimated by spectroscopy and gel electrophoresis. Stage V and VI oocytes were surgically removed from the ovaries of large, well-fed and healthy Xenopus laevis anesthetized with 3-amino-benzoic acid ethyl ester (3 gm/l) as previously described. Clusters of isolated oocytes were incubated with 292 U/ml Worthington (Freehold, N.J.) type IV collagenase or 1.3 mg/ml collagenase (Life Technologies, Gaithersburg, Md.; 17018-029) for 2 hr in Ca^2+-free solution comprised of (in mM) 115 NaCl, 2.5 KCl, and 10 HEPES, pH 7.5, with slow agitation to remove the follicular cell layer. Oocytes were then washed extensively in the same solution supplemented with 1.8 mM CaCl2 and maintained in Barth's solution comprised of (in mM): 88 NaCl, 1 KCl, 2.4 NaHCO3, 10 HEPES, 0.82 MgSO4, 0.33 Ca(NO3)2, and 0.91 CaCl2 and supplemented with 100 μg/ml gentamycin, 10 μg/ml streptomycin, and 10 μg/ml penicillin. Oocytes were manually defolliculated and injected within 24 hrs of isolation with 3-5 ng of NR1 subunit cRNA and 7-10 ng of NR2 cRNA subunit in a 50 nl volume, or 5-10 ng of AMPA or kainate receptor cRNAs in a 50 nl volume, and incubated in Barth's solution at 18° C. for 1-7 d. Glass injection pipettes had tip sizes ranging from 10-20 microns, and were backfilled with mineral oil.
Two electrode voltage-clamp recordings were made 2-7 days post-injection as previously described. Oocytes were placed in a dual-track plexiglass recording chamber with a single perfusion line that splits in a Y-configuration to perfuse two oocytes. Dual recordings were made at room temperature (23° C.) using two Warner OC725B two-electrode voltage clamp amplifiers, arranged as recommended by the manufacturer. Glass microelectrodes (1-10 Megaohms) were filled with 300 mM KCl (voltage electrode) or 3 M KCl (current electrode). The bath clamps communicated across silver chloride wires placed into each side of the recording chamber, both of which were assumed to be at a reference potential of 0 mV. Oocytes were perfused with a solution comprised of (in mM) 90 NaCl, 1 KCl, 10 HEPES, and 0.5 BaCl2; pH was adjusted by addition of 1-3 M NaOH of HCl. Oocytes were recorded under voltage clamp at −40 mV. Final concentrations for control application of glutamate (50 μM) plus glycine (30 μM) were achieved by adding appropriate volumes from 100 and 30 mM stock solutions, respectively. In addition, 10 μM final EDTA was obtained by adding a 1:1000 dilution of 10 mM EDTA, in order to chelate contaminant divalent ions such as Zn^2+. Concentration-response curves for experimental compounds were obtained by applying in successive fashion maximal glutamate/glycine, followed by glutamate/glycine plus variable concentrations of experimental compounds. Dose response curves consisting of 4 to 8 concentrations were obtained in this manner. The baseline leak current at −40 mV was measured before and after recording, and the full recording linearly corrected for any change in leak current. Oocytes with glutamate-evoked responses smaller than 50 nA were not included in the analysis. The level of inhibition by applied experimental compounds was expressed as a percent of the initial glutamate response, and averaged together across oocytes from a single frog. Each experiment consisted of recordings from 3 to 10 oocytes obtained from a single frog. Results from 3-6 experiments were pooled, and the average percent responses at antagonist concentrations were fitted by the equation,
Percent Response=(100−minimum)/(1+([conc]/IC50)^nH)+minimum […]

[3] = biological target: T1, human ether-a-go-go potassium channel (hERG) expressed in HEK293 cells (Homo sapiens, UniProt Q12809); experiment: hERG binding by displacement of 3[H]-astemizole; settings: 3[H]-astemizole displacement; Ki from IC50 by Cheng and Prusoff
T1 construct: expressed in transfected cells; host or cells: HEK293
Experimental: Compounds were evaluated for binding to the human ether-a-go-go potassium channel (hERG) expressed in HEK293 cells by displacement of ^3[H]-astemizole according to the methods by Finlayson et al. (K. Finlayson., L. Turnbull, C. T. January, J. Sharkey, J. S. Kelly; ^3[H]Dofetilide binding to HERG transfected membranes: a potential high throughput preclinical screen. Eur. J. Pharmacol. 2001, 430, 147-148). Compounds were incubated at 1 or 10 μM final concentration, in duplicate, and the amount of displaced ^3[H]-astemizole determined by liquid scintillation spectroscopy. In some cases, a seven concentration (each concentration in duplicate) displacement curve was generated to determine an IC50.
as §1

[4] = Brain exposure (brain:plasma ratio, Table 24); assay type: in vivo, Rats; settings: rat, brain and plasma, read-out: RATIO: Brain:plasma (Direct); for Kp at 30 min: 30 m; for Kp: avg
Experimental: Animals were fasted overnight prior to dose administration and food returned to the animals two hours after dosing. Following IV dosing, blood samples (ca 200 μL) were collected into separate tubes containing anticoagulant (K-EDTA) via the orbital plexus at various times post administration. Plasma samples were prepared immediately after collection by centrifugation for ten minutes using a tabletop centrifuge, and stored at −80° C. Brain tissue was weighed, homogenized on ice in 50 mM phosphate buffer (2 ml per brain) and the homogenate stored at −80° C. Plasma and brain homogenate samples were extracted by the addition of 5 volumes of cold acetonitrile, mixed well by vortexing and centrifuged at 4000 rpm for 15 minutes. The supernatant fractions were analyzed by LC-MS/MS operating in multiple reaction monitoring mode (MRM). The amount of parent compound in each sample was calculated by comparing the response of the analyte in the sample to that of a standard curve.

[5] = test system: MDR1-MDCK cell monolayers that express the multidrug transporter P-gp; experiment: In vitro cell permeability assay to predict brain penetration potential; assay type: in vitro ADME; design: key: High: when Papp A−B≧3.0×10−6 cm/s, and efflux<3.0; Moderate: when Papp A−B≧3.0×10−6 cm/s, and 10>efflux≧3.0; Low: when either Papp A−B≧3.0×10−6 cm/s, and efflux≧10, or when Papp A−B<3.0×10−6 cm/s; settings: 5 μM, pH 7.4, 2 hr, from Papp A-B and efflux ratio
Experimental: Penetration Classification (Table 24) using the in vitro cell permeability assay to predict bran penetration potential: Transwell® wells containing MDR1-MDCK cell monolayers that express the multidrug transporter P-gp were used for measuring the percent recovery of compound after dosing both sides of a cell monolayer with the test article. Monolayers were grown for 7-11 days at which time 5 μM of the test article was made by dilution from DMSO stocks into a Hank's balanced salt solution (pH 7.4), final DMSO not greater than 1%, and added to: a) the apical side for A-B permeability (apical to basal) assessment, or separately b) the basal side for the B-A permeability (basal to apical) assessment, all at pH 7.4. After a 2 hr incubation (37° C.) both the apical and the basal compartments were sampled and the amount of test article present determined by generic LC-MS/MS methods against a ≧4 point calibration curve. Experiments were done in duplicate. Apparent permeability (Papp units are reported×10−6 cm/s) are determined for the A−B and the B−A directions as well as the Efflux ratio (PappB−A/Papp A−B). The blood-brain barrier penetration potential is classified as follows: “High” when Papp A−B≧3.0×10−6 cm/s, and efflux<3.0; “Moderate” when Papp A−B≧3.0×10−6 cm/s, and 10>efflux≧3.0; and “Low” when either Papp A−B≧3.0×10−6 cm/s, and efflux≧10, or when Papp A−B<3.0×10−6 cm/s.

Sequence of NMDA receptor (NR1 + NR2 subunits) (Q00960 27-1482, other chains not shown): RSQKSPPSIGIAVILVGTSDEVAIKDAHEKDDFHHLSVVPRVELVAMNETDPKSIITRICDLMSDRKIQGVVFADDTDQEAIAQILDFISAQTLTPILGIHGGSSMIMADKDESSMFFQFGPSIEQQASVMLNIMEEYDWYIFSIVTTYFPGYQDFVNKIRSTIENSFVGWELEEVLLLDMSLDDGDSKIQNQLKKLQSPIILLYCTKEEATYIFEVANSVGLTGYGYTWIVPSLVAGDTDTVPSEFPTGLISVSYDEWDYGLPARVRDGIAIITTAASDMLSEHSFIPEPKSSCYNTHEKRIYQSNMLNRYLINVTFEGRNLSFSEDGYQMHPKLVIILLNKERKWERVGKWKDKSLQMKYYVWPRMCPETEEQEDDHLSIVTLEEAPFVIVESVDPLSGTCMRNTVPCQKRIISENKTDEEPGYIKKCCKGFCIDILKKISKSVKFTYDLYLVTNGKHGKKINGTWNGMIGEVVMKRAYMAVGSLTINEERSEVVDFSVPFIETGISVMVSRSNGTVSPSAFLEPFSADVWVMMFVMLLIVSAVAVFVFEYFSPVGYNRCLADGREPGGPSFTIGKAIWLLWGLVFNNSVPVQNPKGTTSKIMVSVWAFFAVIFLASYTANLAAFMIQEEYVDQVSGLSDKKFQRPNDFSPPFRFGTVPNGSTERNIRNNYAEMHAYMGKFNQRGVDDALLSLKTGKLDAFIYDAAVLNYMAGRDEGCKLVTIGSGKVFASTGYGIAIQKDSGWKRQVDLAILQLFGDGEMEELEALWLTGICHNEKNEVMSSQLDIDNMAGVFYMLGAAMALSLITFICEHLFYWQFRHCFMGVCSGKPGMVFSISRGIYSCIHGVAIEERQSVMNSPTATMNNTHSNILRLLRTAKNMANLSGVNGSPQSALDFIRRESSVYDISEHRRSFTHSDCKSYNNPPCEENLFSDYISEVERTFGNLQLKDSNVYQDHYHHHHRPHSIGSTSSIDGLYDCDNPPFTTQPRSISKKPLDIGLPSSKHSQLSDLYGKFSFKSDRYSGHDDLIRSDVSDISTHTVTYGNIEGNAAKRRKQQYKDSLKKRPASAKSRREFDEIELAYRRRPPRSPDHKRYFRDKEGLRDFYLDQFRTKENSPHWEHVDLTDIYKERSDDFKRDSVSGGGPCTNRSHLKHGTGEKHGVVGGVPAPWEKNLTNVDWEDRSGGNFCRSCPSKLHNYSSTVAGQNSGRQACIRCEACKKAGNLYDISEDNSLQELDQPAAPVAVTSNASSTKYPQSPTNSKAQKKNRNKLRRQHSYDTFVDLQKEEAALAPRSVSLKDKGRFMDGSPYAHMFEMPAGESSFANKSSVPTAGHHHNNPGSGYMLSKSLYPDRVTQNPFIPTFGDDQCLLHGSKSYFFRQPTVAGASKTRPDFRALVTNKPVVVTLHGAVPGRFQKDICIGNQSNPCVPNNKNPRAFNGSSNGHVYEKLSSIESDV
T1 sequence (Q12809 whole entry): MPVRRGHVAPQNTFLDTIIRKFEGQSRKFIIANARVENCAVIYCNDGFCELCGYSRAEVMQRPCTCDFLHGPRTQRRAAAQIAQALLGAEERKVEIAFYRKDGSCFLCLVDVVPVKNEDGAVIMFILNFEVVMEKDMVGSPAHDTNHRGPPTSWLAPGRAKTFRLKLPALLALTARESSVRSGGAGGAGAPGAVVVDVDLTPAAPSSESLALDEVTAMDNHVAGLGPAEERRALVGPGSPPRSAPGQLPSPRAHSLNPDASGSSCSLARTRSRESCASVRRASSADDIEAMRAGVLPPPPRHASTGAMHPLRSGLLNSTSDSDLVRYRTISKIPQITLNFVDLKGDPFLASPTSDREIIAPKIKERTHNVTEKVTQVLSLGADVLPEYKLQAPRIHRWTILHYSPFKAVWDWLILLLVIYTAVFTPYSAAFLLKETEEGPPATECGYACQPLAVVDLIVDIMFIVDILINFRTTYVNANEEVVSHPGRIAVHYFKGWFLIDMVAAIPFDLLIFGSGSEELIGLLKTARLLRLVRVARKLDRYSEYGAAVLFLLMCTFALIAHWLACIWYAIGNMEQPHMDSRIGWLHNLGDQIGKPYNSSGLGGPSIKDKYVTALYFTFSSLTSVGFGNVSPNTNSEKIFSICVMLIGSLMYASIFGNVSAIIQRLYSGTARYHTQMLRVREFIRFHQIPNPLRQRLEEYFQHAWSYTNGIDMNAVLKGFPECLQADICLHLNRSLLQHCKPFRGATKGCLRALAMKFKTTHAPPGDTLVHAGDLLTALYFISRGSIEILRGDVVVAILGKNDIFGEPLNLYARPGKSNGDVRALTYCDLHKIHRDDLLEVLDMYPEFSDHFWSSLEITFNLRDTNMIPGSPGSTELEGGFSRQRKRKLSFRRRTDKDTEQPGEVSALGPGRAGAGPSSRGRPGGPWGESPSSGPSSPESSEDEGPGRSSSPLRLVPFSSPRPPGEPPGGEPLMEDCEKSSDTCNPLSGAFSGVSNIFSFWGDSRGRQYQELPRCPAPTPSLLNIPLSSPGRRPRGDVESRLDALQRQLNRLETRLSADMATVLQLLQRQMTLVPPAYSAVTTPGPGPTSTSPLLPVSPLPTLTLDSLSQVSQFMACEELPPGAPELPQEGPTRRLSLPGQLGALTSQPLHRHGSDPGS

IC50 [1] [nM] | IC50 ([2]; pH 6.9, read-out: IC50 pH 6.9) [nM] | IC50 ([2]; pH 7.6, read-out: IC50 pH 7.6) [nM] | SMILES | Ki [3] [nM] | BBB Pene Classification [5] | further results
350 | 32 | 270 | CS(=O)(=O)Nc1ccc(OC[C@@H](O)CN2CCN(c3ccc(Cl)cc3)CC2)cc1 | 553 |  | 
~300 | 410 | 3830 | O[C@H](COc1ccc2[nH]ncc2c1)CN1CCN(c2ccc(Cl)cc2)CC1 | ~1000 |  | 
~350 | 69 | 550 | O=c1ccc2cc(OC[C@@H](O)CN3CCN(c4ccc(Cl)cc4)CC3)ccc2[nH]1 | ~7500 |  | 
~100 | 370 | 29 | O=C1Cc2cc(OC[C@@H](O)CN3CCN(c4ccc(Cl)cc4)CC3)ccc2N1 | ~10000 |  | 
~150 | 16 | 76 | O[C@H](COc1ccc2[nH]c(=S)[nH]c2c1)CN1CCN(c2ccc(Cl)cc2)CC1 | ~7500 |  | 
~100 | 12 | 66 | O=C1CCc2cc(OC[C@@H](O)CN3CCN(c4ccc(Cl)cc4)CC3)ccc2N1 | ~5000 |  | 
720 | 74 | 555 | Oc1ccc(OC[C@@H](O)CN2CCN(c3ccc(Cl)cc3)CC2)cc1 [drawing 775] | 39000 |  | 
 |  |  | Oc1ccc(OC[C@@H](O)CN2CCN(c3ccc(Cl)cc3)CC2)cc1 [drawing 800] |  | High (when Papp A−B≧3.0×10−6 cm/s, and efflux<3.0) | Kp at 30 min ([4]; iv, 3 mg/kg, 3 MPK i.v.): 11; Kp at 1 h ([4]; iv, 3 mg/kg, 3 MPK i.v., 1 hr): 9.5; Kp ([4]; iv, 3 mg/kg, 3 MPK i.v.): 10.2
 |  |  | Cc1ccc(N2CCN(C[C@H](O)COc3ccc4[nH]c(=O)oc4c3)CC2)cc1 [drawing 801] |  | Moderate (when Papp A−B≧3.0×10−6 cm/s, and 10>efflux≧3.0) | Kp at 30 min ([4]; iv, 3 mg/kg, 3 MPK i.v.): 2.3; Kp at 1 h ([4]; iv, 3 mg/kg, 3 MPK i.v., 1 hr): 2.9; Kp at 2 h ([4]; iv, 3 mg/kg, 3 MPK i.v.): 1.7; Kp ([4]; iv, 3 mg/kg, 3 MPK i.v.): 2.3
 |  |  | CS(=O)(=O)Nc1ccc(OC[C@@H](O)CN2CCN(c3ccc(F)c(F)c3)CC2)cc1 [drawing 802] |  | Moderate (when Papp A−B≧3.0×10−6 cm/s, and 10>efflux≧3.0) | Kp at 30 min ([4]; ip, 60 mg/kg, 60 MPK, i.p.): 0.7; Kp at 2 h ([4]; ip, 60 mg/kg, 60 MPK, i.p.): 0.7; Kp at 4 h ([4]; ip, 60 mg/kg, 60 MPK, i.p., 4 hr): 0.9; Kp ([4]; ip, 60 mg/kg, 60 MPK, i.p.): 0.77
 |  |  | NC(=O)Nc1ccc(OC[C@@H](O)CN2CCN(c3ccc(Cl)cc3)CC2)cc1 [drawing 803] |  | Low | Kp at 30 min ([4]; iv, 1 mg/kg, 1MPK i.v.): 0.24; Kp at 6 h ([4]; iv, 3 mg/kg, 3 MPK i.v., 6 hr): 0.49; Kp at 1 hr ([4]; iv, 3 MPK i.v. @ 6 hr, 1MPK @ 0.5 hr and 2 hr, 1 hr): 0.53; Kp ([4]; iv, 3 MPK i.v. @ 6 hr, 1MPK @ 0.5 hr and 2 hr): 0.42
 |  |  | O=C1N(C[C@H](O)COc2ccc(O)cc2)CCN1c1ccc(Cl)cc1 [drawing 804] |  | High (when Papp A−B≧3.0×10−6 cm/s, and efflux<3.0) | Kp at 30 min ([4]; iv, 3 mg/kg, 3 MPK i.v.): 0.68; Kp at 1 h ([4]; iv, 3 mg/kg, 3 MPK i.v., 1 hr): 0.49; Kp ([4]; iv, 3 mg/kg, 3 MPK i.v.): 0.59

SMILES | IC50 [1] [nM] | IC50 ([2]; pH 6.9, read-out: IC50 pH 6.9) [nM] | IC50 ([2]; pH 7.6, read-out: IC50 pH 7.6) [nM] | Ki [3] [nM] | BBB Pene Classification [5] | further results
O=c1[nH]c2ccc(OC[C@@H](O)CN3CCN(c4ccc(Cl)cc4)CC3)cc2o1 [drawing 776] | 620 | 51 | 447 | 1600 |  | 
NC(=O)Nc1ccc(OC[C@@H](O)CN2CCN(c3ccc(Cl)cc3)CC2)cc1 [drawing 778] | 340 | 46 | 452 | 13000 |  | 
O=c1[nH]c2ccc(OC[C@@H](O)CN3CCN(c4ccc(Cl)cc4)CC3)cc2[nH]1 [drawing 781] | ~350 | 14 | 103 | ~7500 |  | 
